The values below are quoted from earlier work in patent US20140011742A1, “Bioactive Peptides and Proteins Containing Bioactive Peptides, their Uses and Processes for Making the Same” (MCGILL UNIVERSITY, priority 2010, published 2014).

The conditions of this data set: compared with β-Lg hydrolysates; as previously reported.

Regarding `O=C1O[C@H]([C@@H](O)CO)C(O)=C1O` [Vitamin C], the radical scavenging activity entry is “comparable radical scavenging activity”.
